target: T1, His-tagged full-length RSK2 (RPS6KA3) (Homo sapiens, UniProt P51812); test: RSK2 Omnia Assay for compound IC50 determination; assay type: biochemical; conditions: ATP 15 μM, n=2, read-out: Mean RSK2 Biochem IC50
T1 construct: His-tagged full-length RSK2 (RPS6KA3, Invitrogen PV3323); His; purchased Invitrogen PV3323
Summary of the method: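 Initial-rate slopes from continuous kinetic reads were fitted to a four-parameter equation for IC50 (n=2). Ki was then derived by Cheng-Prusoff assuming ATP-competitive inhibition. Reactions contained 15 μM ATP (Km 16.3 μM), 5 μM Omnia ST Peptide 6, and […] in 50 mM HEPES pH 7.5, 10 mM MgCl2, 1 mM DTT, 1% DMSO. Compounds spanned 11 threefold steps, […] final.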

T1 sequence (P51812 whole entry): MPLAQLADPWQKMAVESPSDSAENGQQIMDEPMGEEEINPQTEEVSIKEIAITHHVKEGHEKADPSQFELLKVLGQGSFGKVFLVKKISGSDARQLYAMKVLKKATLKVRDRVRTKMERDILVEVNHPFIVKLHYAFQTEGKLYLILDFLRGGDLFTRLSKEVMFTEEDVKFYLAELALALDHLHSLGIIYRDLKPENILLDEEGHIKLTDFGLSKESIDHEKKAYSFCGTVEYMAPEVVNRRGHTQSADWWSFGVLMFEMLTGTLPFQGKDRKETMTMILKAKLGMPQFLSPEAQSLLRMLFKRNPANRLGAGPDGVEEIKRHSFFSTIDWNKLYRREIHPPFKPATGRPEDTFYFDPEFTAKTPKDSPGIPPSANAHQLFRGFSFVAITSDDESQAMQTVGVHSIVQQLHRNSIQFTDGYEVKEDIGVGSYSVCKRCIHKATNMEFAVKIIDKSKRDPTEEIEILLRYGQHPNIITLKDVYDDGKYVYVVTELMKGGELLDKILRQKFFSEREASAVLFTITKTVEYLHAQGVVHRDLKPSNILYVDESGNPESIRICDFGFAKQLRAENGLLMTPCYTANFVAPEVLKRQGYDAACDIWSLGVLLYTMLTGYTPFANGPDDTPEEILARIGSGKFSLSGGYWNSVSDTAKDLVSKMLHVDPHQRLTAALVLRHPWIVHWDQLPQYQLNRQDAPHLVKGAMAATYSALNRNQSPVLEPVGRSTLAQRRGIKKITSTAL

IC50	Molecule
≤ 0.1 µM	CO[C@H]1CC[C@H](N2c3nc(Nc4cc(F)c5[nH]ncc5c4)ncc3N(c3cccc(C#N)c3)C(=O)[C@H]2C)CC1 [compound 224, 3-[(7R)-2-[(7-fluoro-1H-indazol-5-yl)amino]-8-(trans-4-methoxycyclohexyl)-7-methyl-6-oxo-7,8-dihydropteridin-5(6H)-yl]benzonitrile]
≤ 0.1 µM	C[C@@H]1C(=O)N(c2ccc(N(C)C)nc2)c2cnc(Nc3cc(F)c4[nH]ncc4c3)nc2N1C1CCCCC1 [compound 143, (7R)-8-cyclohexyl-5-[6-(dimethylamino)pyridin-3-yl]-2-[(7-fluoro-1H-indazol-5-yl)amino]-7-methyl-7,8-dihydropteridin-6(5H)-one]
≤ 0.1 µM	C[C@@H]1C(=O)N(c2cccc(C#N)c2)c2cnc(Nc3cc(F)c4[nH]c(=O)oc4c3)nc2N1C1CCCCC1 [compound 169, 3-[(7R)-8-cyclohexyl-2-[(4-fluoro-2-oxo-2,3-dihydro-1,3-benzoxazol-6-yl)amino]-7-methyl-6-oxo-7,8-dihydropteridin-5(6H)-yl]benzonitrile]
≤ 0.1 µM	C[C@@H]1C(=O)N(c2cccc(C#N)c2)c2cnc(Nc3cc(F)c(O)c(F)c3)nc2N1[C@H]1CC[C@H](C(F)(F)F)CC1 [compound 259, 3-[(7R)-2-[(3,5-difluoro-4-hydroxyphenyl)amino]-7-methyl-6-oxo-8-[trans-4-(trifluoromethyl)cyclohexyl]-7,8-dihydropteridin-5(6H)-yl]benzonitrile]
≤ 0.1 µM	C[C@@H]1C(=O)N(c2ccccc2)c2cnc(Nc3ccc4[nH]ncc4c3)nc2N1CC1CCCCC1 [Example 72, (7R)-8-(cyclohexylmethyl)-2-(1H-indazol-5-ylamino)-7-methyl-5-phenyl-7,8-dihydropteridin-6(5H)-one]
≤ 0.1 µM	COc1ccc(N2C(=O)[C@@H](C)N(C3CCCCC3)c3nc(Nc4ccc5[nH]ncc5c4)ncc32)cc1C#N [compound 104, 5-[(7R)-8-cyclohexyl-2-(1H-indazol-5-ylamino)-7-methyl-6-oxo-7,8-dihydropteridin-5(6H)-yl]-2-methoxybenzonitrile]
≤ 0.1 µM	C[C@@H]1C(=O)N(c2ccc3ccccc3c2)c2cnc(Nc3ccc4[nH]ncc4c3)nc2N1C1CCCCC1 [Example 45, (7R)-8-cyclohexyl-2-(1H-indazol-5-ylamino)-7-methyl-5-(naphthalen-2-yl)-7,8-dihydropteridin-6(5H)-one]
≤ 0.1 µM	C[C@@H]1C(=O)N(c2cccc(C#N)c2)c2cnc(Nc3cc(F)c(O)c(F)c3)nc2N1C1CCOCC1 [compound 194, 3-[(7R)-2-[(3,5-difluoro-4-hydroxyphenyl)amino]-7-methyl-6-oxo-8-(tetrahydro-2H-pyran-4-yl)-7,8-dihydropteridin-5(6H)-yl]benzonitrile]
≤ 0.1 µM	COc1ccc(N2C(=O)[C@@H](C)N(C3CCC(C)(C)CC3)c3nc(Nc4cc(F)c5[nH]ncc5c4)ncc32)cc1OC [Example 210, (7R)-5-(3,4-dimethoxyphenyl)-8-(4,4-dimethylcyclohexyl)-2-[(7-fluoro-1H-indazol-5-yl)amino]-7-methyl-7,8-dihydropteridin-6(5H)-one]
≤ 0.1 µM	C[C@@H]1C(=O)N(c2cccc(C#N)c2)c2cnc(Nc3ccc4[nH]c(=O)sc4c3)nc2N1C1CCC(F)(F)CC1 [compound 267, 3-[(7R)-8-(4,4-difluorocyclohexyl)-7-methyl-6-oxo-2-[(2-oxo-2,3-dihydro-1,3-benzothiazol-6-yl)amino]-7,8-dihydropteridin-5(6H)-yl]benzonitrile]
≤ 0.1 µM	COCc1cccc(N2C(=O)[C@@H](C)N(C3CCCCC3)c3nc(Nc4ccc5[nH]ncc5c4)ncc32)c1 [compound 110, (7R)-8-cyclohexyl-2-(1H-indazol-5-ylamino)-5-[3-(methoxymethyl)phenyl]-7-methyl-7,8-dihydropteridin-6(5H)-one]
≤ 0.1 µM	C[C@@H]1C(=O)N(c2cccc(C#N)c2)c2cnc(Nc3cnc4[nH]ncc4c3)nc2N1C1CCCCC1 [compound 152, 3-[(7R)-8-cyclohexyl-7-methyl-6-oxo-2-(1H-pyrazolo[3,4-b]pyridin-5-ylamino)-7,8-dihydropteridin-5(6H)-yl]benzonitrile]
≤ 0.1 µM	C[C@@H]1C(=O)N(c2cccc(C#N)c2)c2cnc(Nc3ccc4c(c3)CC(=O)N4)nc2N1C1CCCCC1 [Example 51, 3-[(7R)-8-cyclohexyl-7-methyl-6-oxo-2-[(2-oxo-2,3-dihydro-1H-indol-5-yl)amino]-7,8-dihydropteridin-5(6H)-yl]benzonitrile]
> 1 µM	C[C@@H]1C(=O)N(c2cccc(C#N)c2)c2cnc(Nc3ccc(N)c(C(F)(F)F)c3)nc2N1C1CCC(F)(F)CC1 [compound 275]
≤ 0.1 µM	C[C@@H]1C(=O)N(c2ccc(Cl)cc2)c2cnc(Nc3ccc4[nH]ncc4c3)nc2N1C1CCCCC1 [Example 21, (7R)-5-(4-chlorophenyl)-8-cyclohexyl-2-(1H-indazol-5-ylamino)-7-methyl-7,8-dihydropteridin-6(5H)-one]
≤ 0.1 µM	C[C@@H]1C(=O)N(c2cccc(C#N)c2)c2cnc(Nc3cnc4[nH]ncc4c3)nc2N1C1CCC(F)(F)CC1 [compound 270, 3-[(7R)-8-(4,4-difluorocyclohexyl)-7-methyl-6-oxo-2-(1H-pyrazolo[3,4-b]pyridin-5-ylamino)-7,8-dihydropteridin-5(6H)-yl]benzonitrile]
≤ 0.1 µM	COc1ccc(N2C(=O)[C@@H](C)N([C@H]3CC[C@H](OC)CC3)c3nc(Nc4cnc5[nH]ncc5c4)ncc32)cc1C#N [compound 234, 2-methoxy-5-[(7R)-8-(trans-4-methoxycyclohexyl)-7-methyl-6-oxo-2-(1H-pyrazolo[3,4-b]pyridin-5-ylamino)-7,8-dihydropteridin-5(6H)-yl]benzonitrile]
≤ 0.1 µM	C[C@@H]1C(=O)N(c2cccc(C#N)c2)c2cnc(Nc3cc(F)c4[nH]ncc4c3)nc2N1C1CCC2(CC1)CC2 [Example 297, 3-[(7R)-2-[(7-fluoro-1H-indazol-5-yl)amino]-7-methyl-6-oxo-8-(spiro[2.5]oct-6-yl)-7,8-dihydropteridin-5(6H)-yl]benzonitrile]
≤ 0.1 µM	N#Cc1cccc(N2C(=O)[C@@H](CO)N(C3CCCC3)c3nc(Nc4ccc5[nH]ncc5c4)ncc32)c1 [Example 220, 3-[(7R)-8-cyclopentyl-7-(hydroxymethyl)-2-(1H-indazol-5-ylamino)-6-oxo-7,8-dihydropteridin-5(6H)-yl]benzonitrile]
≤ 0.1 µM	C[C@@H]1C(=O)N(c2cccc(C#N)c2)c2cnc(Nc3ccc4c(c3)CS(=O)(=O)N4)nc2N1C1CCCCC1 [compound 174, 3-[(7R)-8-cyclohexyl-2-[(2,2-dioxido-1,3-dihydro-2,1-benzothiazol-5-yl)amino]-7-methyl-6-oxo-7,8-dihydropteridin-5(6H)-yl]benzonitrile]
≤ 0.1 µM	COc1ccc(N2C(=O)[C@@H](C)N(C3CCC(=O)CC3)c3nc(Nc4cc(F)c5[nH]ncc5c4)ncc32)cc1OC [compound 308, (7R)-5-(3,4-dimethoxyphenyl)-2-[(7-fluoro-1H-indazol-5-yl)amino]-7-methyl-8-(4-oxocyclohexyl)-7,8-dihydropteridin-6(5H)-one]
≤ 0.1 µM	C[C@@H]1C(=O)N(c2cccc(C#N)c2)c2cnc(Nc3cc(F)c4[nH]ncc4c3)nc2N1C1CCCC1 [Example 219, 3-[(7R)-8-cyclopentyl-2-[(7-fluoro-1H-indazol-5-yl)amino]-7-methyl-6-oxo-7,8-dihydropteridin-5(6H)-yl]benzonitrile]
≤ 0.1 µM	CCOc1ccc(N2C(=O)[C@@H](C)N(CCC(C)C)c3nc(Nc4cc(F)c5[nH]ncc5c4)ncc32)cc1C#N [Example 92, 2-ethoxy-5-[(7R)-2-[(7-fluoro-1H-indazol-5-yl)amino]-7-methyl-8-(3-methylbutyl)-6-oxo-7,8-dihydropteridin-5(6H)-yl]benzonitrile]
≤ 0.1 µM	CC(C)CCN1c2nc(Nc3ccc4c(c3)CC(=O)N4)ncc2N(c2ccccc2)C(=O)C1C (stereo not drawn) [Example 3, 7-methyl-8-(3-methylbutyl)-2-[(2-oxo-2,3-dihydro-1H-indol-5-yl)amino]-5-phenyl-7,8-dihydropteridin-6(5H)-one]
≤ 0.1 µM	Cc1cccc(N2C(=O)[C@@H](C)N(C3CCCCC3)c3nc(Nc4ccc5[nH]ncc5c4)ncc32)c1 [Example 30, (7R)-8-cyclohexyl-2-(1H-indazol-5-ylamino)-7-methyl-5-(3-methylphenyl)-7,8-dihydropteridin-6(5H)-one]
≤ 0.1 µM	C[C@@H]1C(=O)N(c2cncc(C#N)c2)c2cnc(Nc3ccc4[nH]ncc4c3)nc2N1C1CCCCC1 [compound 128, 5-[(7R)-8-cyclohexyl-2-(1H-indazol-5-ylamino)-7-methyl-6-oxo-7,8-dihydropteridin-5(6H)-yl]pyridine-3-carbonitrile]
≤ 0.1 µM	C[C@@H]1C(=O)N(c2cccc(C#N)c2)c2cnc(Nc3cc(F)c4[nH]c(=O)oc4c3)nc2N1C1CCC(F)(F)CC1 [compound 277, 3-[(7R)-8-(4,4-difluorocyclohexyl)-2-[(4-fluoro-2-oxo-2,3-dihydro-1,3-benzoxazol-6-yl)amino]-7-methyl-6-oxo-7,8-dihydropteridin-5(6H)-yl]benzonitrile]
> 1 µM	COc1ccc(N2C(=O)[C@@H](C)N(C3CCCCC3)c3nc(NCc4ccncc4)ncc32)cc1OC [compound 162]
≤ 0.1 µM	C[C@@H]1C(=O)N(c2cccc(Cl)c2)c2cnc(Nc3ccc4[nH]ncc4c3)nc2N1C1CCCCC1 [Example 31, (7R)-5-(3-chlorophenyl)-8-cyclohexyl-2-(1H-indazol-5-ylamino)-7-methyl-7,8-dihydropteridin-6(5H)-one]

Molecule	IC50
(7R)-8-cyclohexyl-2-(1H-indazol-5-ylamino)-7-methyl-5-[4-(morpholin-4-yl)phenyl]-7,8-dihydropteridin-6(5H)-one [compound 126]	≤ 0.1 µM

Source: patent US9351974B2, “Substituted pteridinones for the treatment of cancer” (OSI Pharmaceuticals, LLC, priority 2011, dated 2016)
